This note sets out measurements from PMC12177571, “Glycosidase-activated prodrugs of a cytotoxic iron chelator for targeted cancer therapy” (RSC Medicinal Chemistry, 2025).

One experiment deals with A549 cells. The experiment is described as follows: MTT cell viability assay, A549 cells. The format is cell-based. The conditions noted are these: Homo sapiens, 72 h incubation, mean and SD of three independent experiments, read-out: IC50 against A549. The procedure:
(§1) Next, the cytotoxicity of the prodrugs was assessed in the human lung cancer (A549) and human ovarian cancer (OvCar-3) cell lines: overexpressing β-glucosidase, and, overexpressing both β-glucosidase and β-galactosidase, respectively.[40,41] For this, a standard MTT assay was employed to generate the proliferation profiles (cf. ESI ^† Fig. S1–S5) and allowed us to calculate the IC50 values for each compound. GM5756 fibroblast cells were included as non-cancerous control.
(§2) Cell culture. Ovcar-3 cells were maintained in RPMI-1640 medium (Invitrogen), A549 cells were maintained in high glucose (4.5 g/L) Dulbecco’s Modified Eagle’s medium (Invitrogen. Alle employed culture media were supplemented with 10% fetal bovine serum (Gibco), 2% penicillin/streptomycin (Sigma Aldrich), 1%GlutaMAX™-I (100x, Gibco), and 1% sodium pyruvate (100 mM, Gibco).
(§3) Cells were kept under a humidified atmosphere of 10% CO2 and 90% air at 37°C. Cells were split when they reached 90% confluency. All employed cell lines were sourced from the German Collection of Microorganisms and Cell Cultures (Leibnitz Institute, DSMZ).
(§4) Cell viability studies and MTT assays. Cells were harvested and plated on a 96-well plate in 100 µL growth medium at a density of 1500 cells per well. The cells were left to grow for 24 h at 37°C under a humidified atmosphere with 10% CO2. The next day, 100 µL of growth medium containing appropriate concentrations of the investigated compound were added to each well. As a control, the first row of wells was treated with 100 µL medium containing only the vehicle (1% DMSO); all wells contained a final concentration of 0.5% DMSO for the duration of the treatment. After incubation with the compound for 72 h, 50 µL of MTT solution (2.5 mg/mL 3-(4,5-dimethylthiazol-2-yl)-2,5-diphenyltetrazolium bromide dye in PBS buffer) was added to each well. After an additional incubation for 2 h, the supernatant was aspired off and 200 µL of DMSO was added to each well to solubilize the precipitated formazan dye. The produced formazan dye was quantified by measuring the optical density of the solution at 550 nm with a Tecan Infinite M Nano+ plate reader. A baseline correction was performed by subtracting a reference absorbance at 620 nm for each well. From the mean of the corrected absorbances for each set of equivalent wells, a dose-response curve was produced, which was then normalized to the wells containing untreated cells to allow for plate-to-plate comparison. The resulting dose-response curves were subjected to non-linear regression analysis performed in Microsoft Excel (version 16.64) to determine IC50 via the Hill-Langmuir model. Data is shown as the mean of three replicate experiments and error bars represent the standard deviation at each datum point.
(In general: Tetrazolium assays rely on reduction of a dye to a coloured formazan, in cell work by metabolically active cells.)

In another experiment the test system is OvCar-3 cells. Nature of the experiment: MTT cell viability assay, OvCar-3 cells. The conditions noted are these: Homo sapiens, 72 h incubation, mean and SD of three independent experiments, read-out: IC50 against OvCar-3. Type of experiment: cell-based. The procedure:
as §1, §2, §3, §4

A further experiment relates to GM5756 fibroblast cells. The experiment is described as follows: MTT cell viability assay, GM5756 fibroblast cells (non-cancerous control). The format is cell-based. The conditions noted are these: 72 h incubation, mean and SD of three independent experiments, read-out: IC50 against GM5756. The procedure:
as §1, §2, §3, §4

Experiment [1] in a line: Fe(III) binding study by UV-vis spectroscopy. The conditions noted are these: 30 μM compound, excess FeCl3 (50 μM), methanol. The procedure:
With the prodrugs in hand, binding studies were carried out using UV-vis spectroscopy; this was done to confirm the Fe(III) binding ability of all new compounds. […] To evaluate whether 2a, 2b, 3a, and 3b were chelating Fe(III), each prodrug was similarly dissolved in a solution containing excess FeCl3.
Fig. 2 UV-vis absorption spectra for prodrugs 2a/b and 3a/b as well as 1 at a concentration of 30 μM with an excess of FeCl3 as Fe(III) source (50 μM) in methanol.
UV-vis spectra were recorded in methanol containing the indicated ligand or prodrug at a concentration of 30 µM and as appropriate Fe(III) at a concentration of 50 µM. A stock solution of FeCl3 in DMSO was used as source of Fe(III) and ligands were added from a […] stock solution in DMSO. All samples contained a final concentration of <0.2% DMSO.
Figure S7: UV-vis absorption spectra of 1, Fe(III), and 1 + Fe(III). The graph for 1 + Fe(III) (Numerically) was constructed by numerically adding the respective signals of Fe(III) and 1 to show what graph could be expected if the two species were in the same solution without interacting.
Figure S8: UV-vis absorption spectra of 2a, Fe(III), and 2a + Fe(III). The graph for 2a + Fe(III) (Numerically) was constructed by numerically adding the respective signals of Fe(III) and 2a to show what graph could be expected if the two species were in the same solution without interacting. […]

In another experiment the target is T1, β-galactosidase (Escherichia coli, UniProt P00722).
T1 construct: purchased Roche; host or cells: E. coli overproducer
T1 sequence (P00722 2-1024): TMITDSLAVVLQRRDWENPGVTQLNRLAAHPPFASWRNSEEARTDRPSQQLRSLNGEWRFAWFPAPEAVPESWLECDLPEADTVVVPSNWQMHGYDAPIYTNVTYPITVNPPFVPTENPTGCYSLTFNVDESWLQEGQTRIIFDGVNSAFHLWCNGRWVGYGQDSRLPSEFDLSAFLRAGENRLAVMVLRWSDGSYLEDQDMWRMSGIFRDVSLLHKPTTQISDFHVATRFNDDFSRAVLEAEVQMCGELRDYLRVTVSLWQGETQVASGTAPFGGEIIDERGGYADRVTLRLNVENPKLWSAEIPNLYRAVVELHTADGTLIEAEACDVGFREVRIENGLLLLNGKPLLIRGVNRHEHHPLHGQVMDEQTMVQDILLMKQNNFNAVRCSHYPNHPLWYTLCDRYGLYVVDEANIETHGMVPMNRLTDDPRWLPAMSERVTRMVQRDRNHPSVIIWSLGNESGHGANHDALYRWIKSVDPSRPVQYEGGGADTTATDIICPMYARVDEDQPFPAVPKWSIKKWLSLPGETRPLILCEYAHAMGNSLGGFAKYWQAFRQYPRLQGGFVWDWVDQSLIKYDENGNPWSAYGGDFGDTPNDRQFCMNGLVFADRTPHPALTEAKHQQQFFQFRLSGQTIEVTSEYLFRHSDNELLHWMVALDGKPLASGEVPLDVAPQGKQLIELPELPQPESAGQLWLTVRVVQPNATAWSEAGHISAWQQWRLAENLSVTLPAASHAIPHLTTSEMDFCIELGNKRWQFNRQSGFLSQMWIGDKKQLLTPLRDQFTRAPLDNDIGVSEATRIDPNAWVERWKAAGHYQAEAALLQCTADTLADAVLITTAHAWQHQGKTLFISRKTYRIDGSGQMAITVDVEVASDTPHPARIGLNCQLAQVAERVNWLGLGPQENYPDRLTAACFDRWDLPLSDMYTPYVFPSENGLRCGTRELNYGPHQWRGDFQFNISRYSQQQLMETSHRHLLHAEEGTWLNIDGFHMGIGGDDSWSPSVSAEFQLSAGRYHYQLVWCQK
The experiment is described as follows: AIE fluorescence study of release of 1 with β-galactosidase. To be noted: free chelator 1 as reference, 20 μM, enzyme not specified. Type of experiment: biochemical, e.coli. The protocol:
The AIE fluorescence properties of 1 were used as a means of supporting the above conclusion. The emission of all glycosylated prodrugs is suppressed. Thus, solutions of each prodrug were prepared in water, and three enzyme units of β-galactosidase or β-glucosidase, as appropriate, were added to the prodrugs. Each mixture was then analysed by fluorescence spectroscopy after 24 h of incubation. […] This finding is consistent with a lack of enzymatic activation.
Fig. 4 Relative emission intensity at 480 nm (*for 3b at 420 nm) of evaluated compounds at 20 μM before and after incubation with 3 U of the appropriate enzyme. TEXT PRINTED IN THE PICTURE: 1: Relative Emission 480 nm: 100% (Before incubation); Relative Emission 480 nm: 100% (After 24 h incubation) | 2a: Relative Emission 480 nm: 0% (Before incubation); Relative Emission 480 nm: 0% (After 24 h incubation) | 2b: Relative Emission 480 nm: 0% (Before incubation); Relative Emission 480 nm: 1% (After 24 h incubation) | 3a: Relative Emission 480 nm: 1% (Before incubation); Relative Emission 480 nm: 33% (After 24 h incubation) | 3b*: Relative Emission 480 nm: 1% (Before incubation); Relative Emission 480 nm: 11% (After 24 h incubation) […]
Figure S25: Fluorescence spectra for excitation (blue) and emission (green) of 1 at a concentration of 20 μM in water.
Figure S26: Fluorescence spectra for excitation (blue) and emission (green) of 2a at a concentration of 20 μM in water before (left) and after (right) incubation with 3 units of b-galactosidase for 24 h. […]
Figure S28: Fluorescence spectra for excitation (blue) and emission (green) of 3a at a concentration of 20 μM in water before (left) and after (right) incubation with 3 units of β-galactosidase for 24 h. […]

On to `Oc1ccccc1-c1nc(-c2ccccc2O)n(-c2ccccc2)n1` [compound 1, reference compound], for which the IC50 turned out to be 3.1 ± 0.4 µM in the experiment with A549 cells, 3.9 ± 1.6 µM in the experiment with OvCar-3 cells and 2.7 ± 0.1 µM in the experiment with GM5756 fibroblast cells. Further, the “Absorbance at 510 nm (Fe(III) chelation band)” value in experiment [1] was “characteristic absorption band at 510 nm”. Also, the “Relative emission intensity at 480 nm” value on β-galactosidase (after 24 h incubation) and on β-galactosidase (before incubation) was 100% in each case.

As a reminder, the IC50 is the concentration at which inhibition is half-maximal.
